# From the supplement of paper PMC10307832
# Legend:
# Test in all cases: relative viability (nuclei count vs DMSO), 5 days (fraction); higher = more cells survive
# [1] = test system: SK-MES-1
# Method in brief: (§1)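 Nuclei were stained with Hoechst during a one-step fixation (final 0.05% Triton X-100, 1% formaldehyde, 1 ug/ml Hoechst) carried out 5 days after dosing, then counted on 4× images. The cells, lung cancer lines in 1536-well plates, had been dosed by pin tool the day after seeding with one drug alone or a fixed anchor-drug dose plus five library-drug doses (not always all listed) in √10 steps. Relative viability is the nuclei count in treated wells divided by that in vehicle wells, and each value is the median of duplicate plates.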
# [2] = test system: LU99A
# Method in brief: as §1
# [3] = test system: NCI-H2087
# Method in brief: as §1
# [4] = test system: LK-2
# Method in brief: as §1
# [5] = test system: ChaGo-K-1
# Method in brief: as §1
# [6] = test system: NCI-H1944
# Method in brief: as §1
# [7] = test system: NCI-H650
# Method in brief: as §1
# [8] = test system: NCI-H661
# Method in brief: as §1
# [9] = test system: HCC-78
# Method in brief: as §1
# [10] = test system: LC-2-ad
# Method in brief: as §1
# [11] = test system: NCI-H838
# Method in brief: as §1
# [12] = test system: NCI-H358
# Method in brief: as §1
# [13] = test system: PC-3 [JPC-3]
# Method in brief: as §1
# [14] = test system: NCI-H1651
# Method in brief: as §1
# [15] = test system: LCLC-97TM1
# Method in brief: as §1
# [16] = test system: NCI-H1975
# Method in brief: as §1
# [17] = test system: NCI-H1355
# Method in brief: as §1
# [18] = test system: NCI-H2342
# Method in brief: as §1
# [19] = test system: LXF-289
# Method in brief: as §1
# [20] = test system: BEN
# Method in brief: as §1
# [21] = test system: NCI-H1666
# Method in brief: as §1
smiles,measurement,setting,value
Cc1sc2c(c1C)C(c1ccc(Cl)cc1)=N[C@@H](CC(=O)OC(C)(C)C)c1nnc(C)n1-2 [JQ1] + CC(=O)c1c(C)c2cnc(Nc3ccc(N4CCNCC4)cn3)nc2n(C2CCCC2)c1=O [Palbociclib] (partner 0.5 µM),relative viability,[1]; first compound 0.04 µM,0.295
same,relative viability,[1]; first compound 0.1265 µM,0.264
same,relative viability,[1]; first compound 0.4 µM,0.234
same,relative viability,[1]; first compound 1.265 µM,0.213
same,relative viability,[1]; first compound 4 µM,0.23
same,relative viability,[2]; first compound 0.04 µM,0.465
same,relative viability,[2]; first compound 0.4 µM,0.287
same,relative viability,[2]; first compound 1.265 µM,0.185
same,relative viability,[2]; first compound 4 µM,0.176
same,relative viability,[3]; first compound 0.04 µM,0.234
same,relative viability,[3]; first compound 0.1265 µM,0.214
same,relative viability,[3]; first compound 0.4 µM,0.153
same,relative viability,[3]; first compound 1.265 µM,0.157
same,relative viability,[3]; first compound 4 µM,0.163
same,relative viability,[4]; first compound 0.04 µM,0.718
same,relative viability,[4]; first compound 0.1265 µM,0.702
same,relative viability,[4]; first compound 0.4 µM,0.339
same,relative viability,[4]; first compound 1.265 µM,0.151
same,relative viability,[4]; first compound 4 µM,0.151
same,relative viability,[5]; first compound 0.04 µM,0.942
same,relative viability,[5]; first compound 0.1265 µM,0.909
same,relative viability,[5]; first compound 0.4 µM,0.952
same,relative viability,[5]; first compound 1.265 µM,0.674
same,relative viability,[5]; first compound 4 µM,0.525
same,relative viability,[6]; first compound 0.04 µM,0.327
same,relative viability,[6]; first compound 0.1265 µM,0.308
same,relative viability,[6]; first compound 0.4 µM,0.232
same,relative viability,[6]; first compound 1.265 µM,0.217
same,relative viability,[6]; first compound 4 µM,0.179
same,relative viability,[7]; first compound 0.04 µM,0.328
same,relative viability,[7]; first compound 0.1265 µM,0.259
same,relative viability,[7]; first compound 0.4 µM,0.228
same,relative viability,[7]; first compound 1.265 µM,0.176
same,relative viability,[7]; first compound 4 µM,0.164
same,relative viability,[8]; first compound 0.04 µM,0.406
same,relative viability,[8]; first compound 0.1265 µM,0.369
same,relative viability,[8]; first compound 0.4 µM,0.424
same,relative viability,[8]; first compound 1.265 µM,0.406
same,relative viability,[8]; first compound 4 µM,0.397
same,relative viability,[9]; first compound 0.04 µM,0.489
same,relative viability,[9]; first compound 0.1265 µM,0.523
same,relative viability,[9]; first compound 0.4 µM,0.511
same,relative viability,[9]; first compound 1.265 µM,0.469
same,relative viability,[9]; first compound 4 µM,0.513
same,relative viability,[10]; first compound 0.04 µM,0.514
same,relative viability,[10]; first compound 0.1265 µM,0.433
same,relative viability,[10]; first compound 0.4 µM,0.342
same,relative viability,[10]; first compound 1.265 µM,0.279
same,relative viability,[10]; first compound 4 µM,0.281
same,relative viability,[11]; first compound 0.04 µM,0.205
same,relative viability,[11]; first compound 0.1265 µM,0.194
same,relative viability,[11]; first compound 0.4 µM,0.167
same,relative viability,[11]; first compound 1.265 µM,0.164
same,relative viability,[11]; first compound 4 µM,0.162
same,relative viability,[12]; first compound 0.04 µM,0.168
same,relative viability,[12]; first compound 0.1265 µM,0.163
same,relative viability,[12]; first compound 0.4 µM,0.153
same,relative viability,[12]; first compound 1.265 µM,0.145
same,relative viability,[12]; first compound 4 µM,0.155
same,relative viability,[13]; first compound 0.04 µM,0.532
same,relative viability,[13]; first compound 0.1265 µM,0.554
same,relative viability,[13]; first compound 0.4 µM,0.513
same,relative viability,[13]; first compound 1.265 µM,0.575
same,relative viability,[13]; first compound 4 µM,0.438
same,relative viability,[14]; first compound 0.04 µM,0.494
same,relative viability,[14]; first compound 0.1265 µM,0.416
same,relative viability,[14]; first compound 0.4 µM,0.403
same,relative viability,[14]; first compound 1.265 µM,0.299
same,relative viability,[14]; first compound 4 µM,0.282
same,relative viability,[15]; first compound 0.04 µM,0.255
same,relative viability,[15]; first compound 0.1265 µM,0.159
same,relative viability,[15]; first compound 0.4 µM,0.15
same,relative viability,[15]; first compound 1.265 µM,0.0928
same,relative viability,[15]; first compound 4 µM,0.0931
same,relative viability,[16]; first compound 0.04 µM,0.607
same,relative viability,[16]; first compound 0.1265 µM,0.38
same,relative viability,[16]; first compound 0.4 µM,0.457
same,relative viability,[16]; first compound 1.265 µM,0.287
same,relative viability,[16]; first compound 4 µM,0.248
same,relative viability,[17]; first compound 0.04 µM,0.375
same,relative viability,[17]; first compound 0.1265 µM,0.372
same,relative viability,[17]; first compound 0.4 µM,0.323
same,relative viability,[17]; first compound 1.265 µM,0.276
same,relative viability,[17]; first compound 4 µM,0.233
same,relative viability,[18]; first compound 0.04 µM,0.526
same,relative viability,[18]; first compound 0.1265 µM,0.501
same,relative viability,[18]; first compound 0.4 µM,0.535
same,relative viability,[18]; first compound 1.265 µM,0.574
same,relative viability,[18]; first compound 4 µM,0.538
same,relative viability,[19]; first compound 0.04 µM,0.562
same,relative viability,[19]; first compound 0.1265 µM,0.591
same,relative viability,[19]; first compound 0.4 µM,0.576
same,relative viability,[19]; first compound 1.265 µM,0.426
same,relative viability,[19]; first compound 4 µM,0.353
same,relative viability,[20]; first compound 0.04 µM,0.435
same,relative viability,[20]; first compound 0.1265 µM,0.443
same,relative viability,[20]; first compound 0.4 µM,0.476
same,relative viability,[20]; first compound 1.265 µM,0.376
same,relative viability,[20]; first compound 4 µM,0.325
same,relative viability,[21]; first compound 0.04 µM,0.646
same,relative viability,[21]; first compound 0.1265 µM,0.576
same,relative viability,[21]; first compound 0.4 µM,0.591
same,relative viability,[21]; first compound 1.265 µM,0.647
same,relative viability,[21]; first compound 4 µM,0.568
